Read-outs that look alike come from different tables or passages of the source.
Target: T1, F508delCFTR (Homo sapiens, UniProt P13569, DEL508-508)
T1 construct: expressed in transfected cells; host or cells: CFBE41o- human lung-derived epithelial cells (CFBE4lo-F508delCFTR-HRP), doxycycline-inducible
Assay: Cell Surface Expression-Horse Radish Peroxidase (CSE-HRP) Assay;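 as to Maximum % activity (with co-corrector): co-corrector and positive control are both the same reference corrector at 2 µM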;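 as to Maximum % activity (without co-corrector): percent of the 2 µM on-plate positive control corrector response above DMSO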
Format: cell-based
Conditions: for Maximum % activity (with co-corrector) / Emax: maximum at any tested concentration, normalized to on-plate positive control; for Emax: read-out: Maximum % activity (without co-corrector)

[1] = CSE-HRP, test compound without co-corrector, read-out: EC50 (without co-corrector)
[2] = CSE-HRP, with co-corrector (2 μM of 3-[(2R,4R)-4-({[1-(2,2-difluoro-1,3-benzodioxol-5-yl)cyclopropyl]carbonyl}amino)-7-methoxy-3,4-dihydro-2H-chromen-2-yl]benzoic acid), read-out: EC50 (with co-corrector)
[3] = CSE-HRP, with co-corrector (2 μM)
[4] = test compound without co-corrector
[5] = test compound without co-corrector, read-out: EC50 (without co-corrector)
[6] = with co-corrector (2 μM of 3-[(2R,4R)-4-({[1-(2,2-difluoro-1,3-benzodioxol-5-yl)cyclopropyl]carbonyl}amino)-7-methoxy-3,4-dihydro-2H-chromen-2-yl]benzoic acid), read-out: EC50 (with co-corrector)
[7] = with co-corrector (2 μM of 3-[(2R,4R)-4-({[1-(2,2-difluoro-1,3-benzodioxol-5-yl)cyclopropyl]carbonyl}amino)-7-methoxy-3,4-dihydro-2H-chromen-2-yl]benzoic acid)

T1 sequence (P13569 with tags, fused parts or gaps DEL508-508): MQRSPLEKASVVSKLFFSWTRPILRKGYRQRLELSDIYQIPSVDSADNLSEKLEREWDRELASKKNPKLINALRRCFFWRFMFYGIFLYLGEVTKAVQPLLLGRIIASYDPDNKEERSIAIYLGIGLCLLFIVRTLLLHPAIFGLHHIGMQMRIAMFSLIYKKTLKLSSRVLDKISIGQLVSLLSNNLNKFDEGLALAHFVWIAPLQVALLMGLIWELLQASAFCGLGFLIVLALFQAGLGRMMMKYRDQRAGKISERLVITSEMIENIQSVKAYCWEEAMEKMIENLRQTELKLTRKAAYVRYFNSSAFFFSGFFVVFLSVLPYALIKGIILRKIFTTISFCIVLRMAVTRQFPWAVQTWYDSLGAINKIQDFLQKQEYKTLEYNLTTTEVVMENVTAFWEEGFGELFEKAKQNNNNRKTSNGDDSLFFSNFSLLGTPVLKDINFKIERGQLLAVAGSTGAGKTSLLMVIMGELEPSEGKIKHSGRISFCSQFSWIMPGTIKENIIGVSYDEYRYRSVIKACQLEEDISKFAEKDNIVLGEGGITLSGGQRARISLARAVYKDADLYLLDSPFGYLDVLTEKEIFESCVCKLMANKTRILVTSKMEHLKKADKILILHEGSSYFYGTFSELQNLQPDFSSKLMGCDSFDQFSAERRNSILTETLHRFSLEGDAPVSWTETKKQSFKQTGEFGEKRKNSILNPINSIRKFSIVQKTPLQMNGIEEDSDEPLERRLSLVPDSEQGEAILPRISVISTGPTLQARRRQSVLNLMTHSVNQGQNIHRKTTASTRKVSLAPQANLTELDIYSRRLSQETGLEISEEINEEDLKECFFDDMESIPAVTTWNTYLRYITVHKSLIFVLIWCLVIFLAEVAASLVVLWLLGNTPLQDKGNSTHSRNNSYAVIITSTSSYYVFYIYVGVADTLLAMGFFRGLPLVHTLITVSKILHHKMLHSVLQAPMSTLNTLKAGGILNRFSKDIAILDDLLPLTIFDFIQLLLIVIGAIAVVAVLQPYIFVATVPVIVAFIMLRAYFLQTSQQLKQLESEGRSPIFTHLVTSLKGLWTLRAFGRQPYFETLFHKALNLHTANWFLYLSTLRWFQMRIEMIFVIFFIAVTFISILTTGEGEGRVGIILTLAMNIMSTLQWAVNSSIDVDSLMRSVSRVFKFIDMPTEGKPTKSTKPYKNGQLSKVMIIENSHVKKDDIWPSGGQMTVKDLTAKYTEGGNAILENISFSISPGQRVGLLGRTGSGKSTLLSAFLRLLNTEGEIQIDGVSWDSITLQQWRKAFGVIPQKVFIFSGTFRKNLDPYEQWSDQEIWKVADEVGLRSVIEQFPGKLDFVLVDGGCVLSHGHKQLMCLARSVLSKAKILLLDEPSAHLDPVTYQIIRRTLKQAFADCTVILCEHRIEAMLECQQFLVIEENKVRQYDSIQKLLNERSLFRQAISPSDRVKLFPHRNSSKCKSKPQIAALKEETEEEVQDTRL

SMILES | EC50 [1] [nM] | EC50 [2] [nM] | Maximum % activity (with co-corrector) [3] | Emax (CSE-HRP, without co-corrector) [%] | Emax [4] [%] | EC50 [5] [nM] | EC50 [6] [nM] | Maximum % activity (with co-corrector) (with co-corrector (2 μM)) | Maximum % activity (with co-corrector) [7] | Emax (without co-corrector) [%]
COc1ccc(C(C)(C)C)cc1CN[C@H]1[C@H](C(C)(C)C)[C@@H](C(=O)O)N(C(=O)C2CCc3ccccc3O2)[C@H]1c1ccccc1 (single isomer, unassigned) [II-164] | < 1000 | < 1000 | +++ (≥350) | > 200 | – | – | – | – | – | –
COCc1cc(C)nc(N[C@H]2[C@H](C(C)(C)C)[C@@H](C(=O)O)N(C(=O)C3CCCCC3)[C@H]2c2ccccc2)c1C#N [II-147] | 1000 to 10000 | 1000 to 10000 | ++ (≥150 and <350) | < 100 | – | – | – | – | – | –
COc1ccc(-c2cnn(C3CC3)c2)cc1CN[C@H]1[C@H](C(C)(C)C)[C@@H](C(=O)O)N(C(=O)C2CCCCC2)[C@H]1c1ccccc1 [III-187] | – | – | – | – | < 100 | 1000 to 10000 | 1000 to 10000 | ++ (≥150 and <350) | – | –
COc1ncc(-c2ccccc2F)cc1CN[C@H]1[C@H](C(C)(C)C)[C@@H](C(=O)O)N(C(=O)C2CCCCC2)[C@H]1c1cccnc1N(C)C [II-405] | – | – | – | – | > 200 | 1000 to 10000 | 1000 to 10000 | – | +++ (≥350) | –
COc1ccc(C(F)(F)F)cc1CN[C@H]1[C@H](C(C)(C)C)[C@@H](C(=O)O)N(C(=O)OC(C)C)[C@H]1c1ccccc1 [II-553] | – | – | – | – | > 200 | 1000 to 10000 | 1000 to 10000 | – | +++ (≥350) | –
COc1ccc(C(C)(C)C)cc1CN[C@H]1[C@H](C(C)(C)C)[C@@H](C(=O)O)N(C(=O)[C@@H](C)[C@@H]2CCCCO2)[C@H]1c1ccccc1 (relative stereo) [Example I-195] | – | – | – | – | – | 1000 to 10000 | 1000 to 10000 | +++ (≥350) | – | > 200
COc1ccc(C2(C)CCC2)cc1CN[C@H]1[C@H](C(C)(C)C)[C@@H](C(=O)O)N(C(=O)C2CCCCC2)[C@H]1c1ccccc1 [II-462] | – | – | – | – | > 200 | < 1000 | < 1000 | – | +++ (≥350) | –
CN(C)c1ncc(C(F)(F)F)cc1CN[C@@H]1[C@@H](C(C)(C)C)[C@H](C(=O)O)N(C(=O)C2CCCCC2)[C@@H]1c1ccccc1 (racemic) [III-36] | – | – | – | – | < 100 | > 10000 | 1000 to 10000 | – | ++ (≥150 and <350) | –
COc1cccc(-c2ccc(OC)c(CN[C@H]3[C@H](C(C)(C)C)[C@@H](C(=O)O)N(C(=O)C4CCCCC4)[C@H]3c3ccccc3)c2)c1 [II-277] | 1000 to 10000 | < 1000 | +++ (≥350) | > 200 | – | – | – | – | – | –
COc1ncc(N2CCCC2)cc1CN[C@H]1[C@H](C(C)(C)C)[C@@H](C(=O)O)N(C(=O)C2CCCCC2)[C@H]1c1ccccc1 [II-246] | 1000 to 10000 | 1000 to 10000 | +++ (≥350) | 100 to 200 | – | – | – | – | – | –
COc1cccc([C@H]2[C@@H](Nc3cc(C(F)(F)F)cc(C)n3)[C@H](C(C)(C)C)[C@@H](C(=O)O)N2C(=O)C2CCCCC2)n1 (racemic) [III-97] | – | – | – | – | < 100 | 1000 to 10000 | 1000 to 10000 | ++ (≥150 and <350) | – | –
COc1ccc(C(C)(C)C)cc1CN[C@H]1[C@H](C(C)(C)C)[C@@H](C(=O)O)N(C(=O)C2CCc3ccccc3O2)[C@H]1c1ccccc1 (single isomer, unassigned) [Example I-83] | – | – | – | – | – | 1000 to 10000 | 1000 to 10000 | +++ (≥350) | – | 100 to 200
COc1ccc(C(C)(C)C)cc1CN[C@H]1[C@H](C(C)(C)C)[C@@H](C(=O)O)N(C(=O)OC(C)(C)C)[C@H]1c1cccnc1OC [Example I-232] | – | – | – | – | – | 1000 to 10000 | 1000 to 10000 | +++ (≥350) | – | > 200
CC(C)(C)[C@H]1[C@H](NCc2cc(F)cc(F)c2)[C@H](c2ccccc2)N(C(=O)C2CCCCC2)[C@@H]1C(=O)O [II-115] | > 10000 | 1000 to 10000 | ++ (≥150 and <350) | < 100 | – | – | – | – | – | –
COc1ncc(C(C)(C)C)cc1CN[C@H]1[C@H](C(C)(C)C)[C@@H](C(=O)O)N(C(=O)C2CCCCC2)[C@H]1c1ccc(F)cc1 [Example I-130] | – | – | – | – | – | < 1000 | < 1000 | +++ (≥350) | – | > 200
COc1ccc(C(F)(F)F)cc1CN[C@@H]1[C@@H](C(C)(C)C)[C@H](C(=O)O)N(C(=O)C2COCCO2)[C@@H]1c1ccccc1 (mixture of isomers) [II-85] | 1000 to 10000 | 1000 to 10000 | ++ (≥150 and <350) | < 100 | – | – | – | – | – | –
COc1ccc(C(C)(C)C)cc1CN[C@H]1[C@H](C(C)(C)C)[C@@H](C(=O)O)N(C(=O)c2ccccc2)[C@H]1c1ccccc1 [Example I-65] | – | – | – | – | – | 1000 to 10000 | 1000 to 10000 | +++ (≥350) | – | 100 to 200
COc1ccc(C(C)(C)C)cc1CN[C@H]1[C@H](C(C)(C)C)[C@@H](C(=O)O)N(C(=O)C2=C(F)CCCC2)[C@H]1c1ccccc1 [II-411] | – | – | – | – | > 200 | 1000 to 10000 | < 1000 | – | +++ (≥350) | –
CC#CCOC(=O)N1[C@H](C(=O)O)[C@@H](C(C)(C)C)[C@H](NCc2cc(C(C)(C)C)ccc2OC)[C@@H]1c1ccccc1 [II-389] | – | – | – | – | 100 to 200 | 1000 to 10000 | 1000 to 10000 | – | +++ (≥350) | –

Second part, the compound after the results:

EC50 [1] [nM] | EC50 [2] [nM] | Maximum % activity (with co-corrector) [3] | Emax (CSE-HRP, without co-corrector) [%] | Emax [4] [%] | EC50 [5] [nM] | EC50 [6] [nM] | Maximum % activity (with co-corrector) (with co-corrector (2 μM)) | Maximum % activity (with co-corrector) [7] | Emax (without co-corrector) [%] | SMILES
1000 to 10000 | 1000 to 10000 | +++ (≥350) | > 200 | – | – | – | – | – | – | COc1cc(C(F)(F)F)ccc1CN[C@H]1[C@H](C(C)(C)C)[C@@H](C(=O)O)N(C(=O)OC(C)C)[C@H]1c1ccccc1OC [II-134]
– | – | – | – | < 100 | 1000 to 10000 | 1000 to 10000 | ++ (≥150 and <350) | – | – | Cc1cc(C(F)(F)F)cc(N[C@H]2[C@H](C(C)(C)C)[C@@H](C(=O)O)N(C(=O)[C@H]3CCCCO3)[C@H]2c2cccnc2N(C)C)n1 [III-216]
– | – | – | – | < 100 | 1000 to 10000 | 1000 to 10000 | – | ++ (≥150 and <350) | – | COc1ncc(C(F)(F)F)cc1N[C@H]1[C@H](C(C)(C)C)[C@@H](C(=O)O)N(C(=O)[C@@H]2CCCC[C@H]2C(F)(F)F)[C@H]1c1cccnc1N(C)C [II-485]
– | – | – | – | < 100 | > 10000 | 1000 to 10000 | – | ++ (≥150 and <350) | – | COc1ccc(C(F)(F)F)cc1CN[C@@H]1[C@@H](C(C)(C)C)[C@H](C(=O)O)N(C(=O)[C@H](OC)c2ccccc2)[C@@H]1c1ccccc1 [III-68]
– | – | – | – | – | 1000 to 10000 | 1000 to 10000 | +++ (≥350) | – | > 200 | COc1ccc(C2(C(F)(F)F)CC2)cc1CN[C@H]1[C@H](C(C)(C)C)[C@@H](C(=O)O)N(C(=O)[C@@H]2CCCCO2)[C@H]1c1cccnc1N(C)C [Example I-176]
1000 to 10000 | 1000 to 10000 | +++ (≥350) | > 200 | – | – | – | – | – | – | COc1ccc(C(C)(C)C)cc1CN[C@H]1[C@H](C(C)(C)C)[C@@H](C(=O)O)N(C(=O)CC2C=CCCC2)[C@H]1c1ccccc1 (stereo partly shown) [II-212]
– | – | – | – | > 200 | 1000 to 10000 | 1000 to 10000 | +++ (≥350) | – | – | COc1ccc(SC(F)(F)F)cc1CN[C@H]1[C@H](C(C)(C)C)[C@@H](C(=O)O)N(C(=O)OC(C)C)[C@H]1c1cccnc1N(C)C [III-225]
– | – | – | – | < 100 | > 10000 | > 10000 | + (<150) | – | – | CC(C)(C)[C@H]1[C@H](NCc2ccc(F)cc2C#N)[C@H](c2ccccc2)N(C(=O)C2CCCCC2)[C@@H]1C(=O)O [III-127]
1000 to 10000 | < 1000 | +++ (≥350) | > 200 | – | – | – | – | – | – | COc1ccc(C(C)(C)C)cc1CN[C@H]1[C@H](C(C)(C)C)[C@@H](C(=O)O)N(C(=O)C[C@H]2OCCc3ccccc32)[C@H]1c1ccccc1 [II-178]
1000 to 10000 | 1000 to 10000 | ++ (≥150 and <350) | < 100 | – | – | – | – | – | – | COc1ccc(C(F)(F)F)cc1CN[C@H]1[C@H](C(C)(C)C)[C@@H](C(=O)O)N(C(=O)C2COc3ccccc3O2)[C@H]1c1ccccc1 (stereo partly shown) [II-156]
– | – | – | – | – | 1000 to 10000 | 1000 to 10000 | ++ (≥150 and <350) | – | < 100 | Cc1cc(C(F)(F)F)cc(N[C@@H]2[C@@H](C(C)(C)C)[C@H](C(=O)O)N(C(=O)C3CCCCC3)[C@@H]2c2ccccc2)n1 [Example 3, (2R,3R,4R,5R)-3-tert-butyl-1-(cyclohexanecarbonyl)-4-{[6-methyl-4-(trifluoromethyl)pyridin-2-yl]amino}-5-phenylpyrrolidine-2-carboxylic acid]
– | – | – | – | 100 to 200 | 1000 to 10000 | 1000 to 10000 | – | +++ (≥350) | – | COc1cc(C(F)(F)F)ccc1CN[C@H]1[C@H](C(C)(C)C)[C@@H](C(=O)O)N(C(=O)OC(C)C)[C@H]1c1cccnc1OC [II-513]

From US20180099931A1 (AbbVie S.à.r.l., priority 2016, published 2018)
